Experimental data from patent US8846704B2, “Thiopyrimidine-based compounds and uses thereof” (YM Biosciences Austraila Pty Ltd, priority 2007, dated 2014).

Experiments:
human JAK2 = biological target: T1, human JAK2 (Homo sapiens, UniProt O60674); assay: Alphascreen tyrosine kinase enzyme assay, JAK2 kinase domain; assay type: biochemical; details: read-out: JAK2 IC50_nM
T1 construct: The kinase domain of human JAK2 was amplified; GST (N); made in house; host or cells: Sf9 insect cells (baculovirus)
In short: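 JAK2 kinase domain expressed in baculovirus/Sf9 and glutathione-affinity purified. Compounds (final […]) pre-incubated 20 min with enzyme in 10 mM HEPES pH 7.5, MgCl2, NaCl, vanadate, 0.1% Tween 20.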

BaF3 wild-type cells = assay: Cellular screening, BaF3 wild-type cells, Alamar Blue; assay type: cell-based; details: Mus musculus, 40 hr, read-out: BAF3wt IC50_nM
In short: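 Compounds, screened from dilution plates at 20 μM, were added as 10× final stocks to cells grown in DMEM/10% FCS/10% WEHI 3B conditioned medium. Cells were seeded at 1.1× final (50,000–200,000 cells/mL) and incubated 40 hr at 37° C, 5% CO2. Viability was read at 544 nm after a further 4–6 hours with Alamar Blue.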

human JAK3 = biological target: T2, human JAK3 (Homo sapiens, UniProt P52333); assay: Alphascreen tyrosine kinase enzyme assay, JAK3 kinase domain; assay type: biochemical; details: read-out: JAK3 IC50_nM
T2 construct: The kinase domain of human JAK3 was amplified; GST (N); made in house; host or cells: Sf9 insect cells (baculovirus)
In short: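 GST-affinity-purified human JAK3 kinase domain (baculovirus/Sf9) was pre-incubated 20 min with compound ([…]) in HEPES pH 7.5 buffer with MgCl2, vanadate and Tween 20. Biotinylated peptide substrate ([…]) and ATP were then added; phosphotyrosine was detected by AlphaScreen PY100 acceptor and streptavidin donor beads after 2–3 h.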

T2 sequence (P52333 822-1111 limits assumed): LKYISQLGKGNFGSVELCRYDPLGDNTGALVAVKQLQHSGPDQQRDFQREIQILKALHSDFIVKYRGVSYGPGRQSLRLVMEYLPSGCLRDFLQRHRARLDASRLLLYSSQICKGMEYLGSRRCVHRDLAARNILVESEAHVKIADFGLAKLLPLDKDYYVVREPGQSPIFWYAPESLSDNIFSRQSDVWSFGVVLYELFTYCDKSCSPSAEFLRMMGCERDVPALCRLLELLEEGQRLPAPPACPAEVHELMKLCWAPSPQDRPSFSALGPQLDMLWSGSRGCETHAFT
T1 sequence (O60674 849-1124 limits assumed): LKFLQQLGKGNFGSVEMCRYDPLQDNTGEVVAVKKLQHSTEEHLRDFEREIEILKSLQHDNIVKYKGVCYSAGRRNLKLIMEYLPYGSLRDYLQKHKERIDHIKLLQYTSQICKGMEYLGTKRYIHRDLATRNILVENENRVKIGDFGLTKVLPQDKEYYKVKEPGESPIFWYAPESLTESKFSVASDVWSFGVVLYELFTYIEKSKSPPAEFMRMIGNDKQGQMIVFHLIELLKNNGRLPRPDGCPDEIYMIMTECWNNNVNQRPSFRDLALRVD

Structure (SMILES): C=CC(=O)Nc1ccc(Sc2nc(Nc3ccc(N4CCS(=O)(=O)CC4)cc3)ncc2C)cc1 [Compound 298, N-{4-[(2-{[4-(1,1-dioxo-1λ^6,4-thiomorpholin-4-yl)phenyl]ao}-5-methylpyrimidin-4-yl)sulfanyl]phenyl}prop-2-enamide]
- IC50 (human JAK2): > 1000 nM
- IC50 (BaF3 wild-type cells): < 20000 nM
- IC50 (human JAK3): < 100 nM

Structure (SMILES): C=CC(=O)Nc1ccc(Sc2ccnc(Nc3ccc(OC)cc3)n2)cc1 [Compound 74, N-(4-(2-(4-methoxyphenylao)pyrimidin-4-ylthio)phenyl)acrylamide]
- IC50 (human JAK2): > 1000 nM
- IC50 (BaF3 wild-type cells): > 20000 nM
- IC50 (human JAK3): < 100 nM

Structure (SMILES): c1cn(Cc2ccc(Sc3ccnc(Nc4ccc(N5CCOCC5)cc4)n3)cc2)cn1 [Compound 127, 4-(4-((1H-imidazol-1-yl)methyl)phenylthio)-N-(4-morpholinophenyl)pyrimidin-2-ae]
- IC50 (human JAK2): < 1000 nM
- IC50 (BaF3 wild-type cells): > 20000 nM
- IC50 (human JAK3): < 500 nM

Structure (SMILES): O=C(/C=C/Cl)Nc1ccc(Sc2ccnc(Nc3ccc(N4CCOCC4)cc3)n2)cc1 [Compound 342, (E)-3-chloro-N-(4-(2-(4-morpholinophenylao)pyrimidin-4-ylthio)phenyl)acrylamide]
- IC50 (human JAK2): > 1000 nM
- IC50 (BaF3 wild-type cells): > 20000 nM
- IC50 (human JAK3): < 100 nM

Structure (SMILES): COc1cc(Sc2ccnc(Nc3ccc(N4CCOCC4)cc3)n2)ccc1N [Compound 117, 4-(4-ao-3-methoxyphenylthio)-N-(4-morpholinophenyl)pyrimidin-2-ae]
- IC50 (human JAK2): > 1000 nM
- IC50 (BaF3 wild-type cells): < 5000 nM
- IC50 (human JAK3): < 500 nM

Structure (SMILES): Cc1cnc(Nc2ccc(N3CCOCC3)cc2)nc1Sc1ccc(N2C(=O)C=CC2=O)cc1 [Compound 390, 1-(4-(5-methyl-2-(4-morpholinophenylao)pyrimidin-4-ylthio)phenyl)-1H-pyrrole-2,5-dione]
- IC50 (human JAK2): < 500 nM
- IC50 (BaF3 wild-type cells): < 5000 nM
- IC50 (human JAK3): < 100 nM

Structure (SMILES): NC(=O)c1nccn1Cc1ccc(Sc2ccnc(Nc3ccc(N4CCOCC4)cc3)n2)cc1 [Compound 149, 1-(4-(2-(4-morpholinophenylao)pyrimidin-4-ylthio)benzyl)-1H-imidazole-2-carboxamide]
- IC50 (human JAK2): > 1000 nM
- IC50 (BaF3 wild-type cells): < 5000 nM
- IC50 (human JAK3): < 500 nM

Structure (SMILES): CCOC(=O)/C=C\C(=O)Nc1ccc(Sc2nc(Nc3ccc(N4CCOCC4)cc3)ncc2C)cc1 [Compound 388, (Z)-ethyl 4-(4-(5-methyl-2-(4-morpholinophenylao)pyrimidin-4-ylthio)phenylao)-4-oxobut-2-enoate]
- IC50 (human JAK2): < 500 nM
- IC50 (BaF3 wild-type cells): < 5000 nM
- IC50 (human JAK3): < 100 nM

Structure (SMILES): O=C(CCl)Nc1cccc(Sc2ccnc(Nc3ccc(N4CCOCC4)cc3)n2)c1 [Compound 332, 2-chloro-N-(3-(2-(4-morpholinophenylao)pyrimidin-4-ylthio)phenyl)acetamide]
- IC50 (human JAK2): > 1000 nM
- IC50 (BaF3 wild-type cells): < 5000 nM
- IC50 (human JAK3): < 100 nM

Structure (SMILES): C=CC(=O)Nc1ccc(Sc2ccnc(Nc3cccc(OC)c3)n2)cc1 [Compound 105, N-(4-(2-(3-methoxyphenylao)pyrimidin-4-ylthio)phenyl)acrylamide]
- IC50 (human JAK2): > 1000 nM
- IC50 (BaF3 wild-type cells): > 20000 nM
- IC50 (human JAK3): < 100 nM

Structure (SMILES): C=CC(=O)Nc1ccc(Sc2nc(Nc3ccc(CNS(C)(=O)=O)cc3)ncc2C)cc1 [Compound 294, N-(4-(5-methyl-2-(4-(methylsulfonamidomethyl)phenylao)pyrimidin-4-ylthio)phenyl)acrylamide]
- IC50 (human JAK2): > 1000 nM
- IC50 (BaF3 wild-type cells): > 20000 nM
- IC50 (human JAK3): < 100 nM

Structure (SMILES): C=CC(=O)Nc1ccc(Sc2ccnc(Nc3ccc4c(c3)OCO4)n2)cc1 [Compound 393, N-(4-(2-(benzo[d][1,3]dioxol-5-ylao)pyrimidin-4-ylthio)phenyl)acrylamide]
- IC50 (human JAK2): > 1000 nM
- IC50 (BaF3 wild-type cells): > 20000 nM
- IC50 (human JAK3): < 100 nM

Structure (SMILES): C=CC(=O)Nc1cc(C)c(Sc2nc(Nc3ccc(N4CCOCC4)cc3)ncc2C)c(C)c1 [Compound 164, N-(3,5-dimethyl-4-(5-methyl-2-(4-morpholinophenylao)pyrimidin-4-ylthio)phenyl)acrylamide]
- IC50 (human JAK2): > 1000 nM
- IC50 (BaF3 wild-type cells): > 20000 nM
- IC50 (human JAK3): < 100 nM

Structure (SMILES): C=CC(=O)Nc1ccc(Sc2ccnc(Nc3ccc(S(=O)(=O)NCc4ccccc4)cc3)n2)cc1 [Compound 368, N-(4-(2-(4-(N-benzylsulfamoyl)phenylao)pyrimidin-4-ylthio)phenyl)acrylamide]
- IC50 (human JAK2): > 1000 nM
- IC50 (BaF3 wild-type cells): < 20000 nM
- IC50 (human JAK3): < 100 nM

Structure (SMILES): Cc1cnc(Nc2ccc(N3CCOCC3)cc2)nc1Sc1ccc(N2C(=O)CCC2=O)cc1 [Compound 384, 1-(4-(5-methyl-2-(4-morpholinophenylao)pyrimidin-4-ylthio)phenyl)pyrrolidine-2,5-dione]
- IC50 (human JAK2): < 500 nM
- IC50 (BaF3 wild-type cells): > 20000 nM
- IC50 (human JAK3): < 100 nM

Structure (SMILES): O=C(Nc1ccc(Sc2ccnc(Nc3ccc(N4CCOCC4)cc3)n2)cc1)C1CC1(F)Cl (stereo not drawn) [Compound 378, 2-chloro-2-fluoro-N-(4-(2-(4-morpholinophenylao)pyrimidin-4-ylthio)phenyl)cyclopropanecarboxamide]
- IC50 (human JAK2): > 1000 nM
- IC50 (BaF3 wild-type cells): < 1000 nM
- IC50 (human JAK3): < 500 nM
